Reference: patent US7348427B2, “Antipathogenic benzamide compounds” (Genesoft Pharmaceuticals, Inc., priority 2001, dated 2008)

Experiments:
[1] = test system: Candida albicans (ATCC 38247); assay: Antifungal MIC assay; format: cell-based; details: B = C. albicans ATCC 38247
How it was run: (§1)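 Activity is measured as MIC in microtiter broth microdilution under NCCLS M7-A4, M11-A4 and M27-T guidance, with the yeast tested by the method in Murray's Manual of Clinical Microbiology.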

[2] = test system: Staphylococcus epidermidis (ATCC 12228); assay: MIC, NCCLS broth microdilution assay; format: cell-based; details: G = S. epidermidis ATCC 12228
How it was run: as §1

[3] = test system: Enterococcus faecium (ATCC 51559, a vancomycin resistant strain (VRE)); assay: MIC, NCCLS broth microdilution assay; format: cell-based; details: D = E. faecium ATCC 51559
How it was run: as §1

[4] = test system: Staphylococcus aureus (ATCC 27660, a methicillin resistant strain (MRSA)); assay: MIC, NCCLS broth microdilution assay; format: cell-based; details: F = S. aureus ATCC 27660
How it was run: as §1

[5] = test system: Bacillus cereus (ATCC 11778); assay: MIC, NCCLS broth microdilution assay; format: cell-based; details: A = B. cereus ATCC 11778
How it was run: as §1

E. faecalis ATCC 29212 = assay: MIC, NCCLS broth microdilution assay; format: cell-based, Enterococcus faecalis; details: C = E. faecalis ATCC 29212
How it was run: (§2)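 MICs were determined by NCCLS broth microdilution following documents M7-A4 and M11-A4 (1997).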

[6] = test system: Streptococcus pneumoniae (ATCC 51422, a penicillin resistant strain (PRSP)); assay: MIC, NCCLS broth microdilution assay; format: cell-based; details: I = S. pneumoniae ATCC 51422
How it was run: as §1

[7] = test system: Staphylococcus aureus (ATCC 13709, a methicillin sensitive strain (MSSA)); assay: MIC, NCCLS broth microdilution assay; format: cell-based; details: E = S. aureus ATCC 13709
How it was run: as §1

S. pneumoniae ATCC 49619 = assay: MIC, NCCLS broth microdilution assay; format: cell-based, Streptococcus pneumoniae; details: H = S. pneumoniae ATCC 49619
How it was run: as §2

[8] = Staphylococcus aureus, read-out: Minimum Inhibitory Concentration (MIC)

MIC ([1]; Candida albicans, ATCC38247, read-out: Minimum Inhibitory Concentration (MIC))	MIC ([2]; Staphylococcus epidermidis, ATCC12228, read-out: Minimum Inhibitory Concentration (MIC))	MIC ([6]; Streptococcus pneumoniae, read-out: Minimum Inhibitory Concentration (MIC))	MIC ([3]; Enterococcus faecium, read-out: Minimum Inhibitory Concentration (MIC))	MIC [4, 8]	MIC [7, 8]	MIC ([5]; Bacillus cereus, ATCC11778, read-out: Minimum Inhibitory Concentration (MIC))	MIC (E. faecalis ATCC 29212; Enterococcus faecalis, ATCC29212, read-out: Minimum Inhibitory Concentration (MIC))	MIC (S. pneumoniae ATCC 49619; Streptococcus pneumoniae, ATCC49619, read-out: Minimum Inhibitory Concentration (MIC))	Compound	Minimum Inhibitory Concentration (MIC) [1]	Minimum Inhibitory Concentration (MIC) [2]	Minimum Inhibitory Concentration (MIC) [3]	Minimum Inhibitory Concentration (MIC) [4]	Minimum Inhibitory Concentration (MIC) [5]	Minimum Inhibitory Concentration (MIC) (E. faecalis ATCC 29212)	Minimum Inhibitory Concentration (MIC) [6]	Minimum Inhibitory Concentration (MIC) [7]	Minimum Inhibitory Concentration (MIC) (S. pneumoniae ATCC 49619)
									Cn1cc(NC(=O)c2cc(NC(=O)c3cc(NC(=O)c4cc(NC(=O)c5ccc(F)cc5F)c[nH]4)cn3C)cn2C)cc1C(=O)NCCN1CCOCC1 [Compound A-2]	>32 µg/mL	+ (+ = 12 ≦ MIC ≦ 32)	+ (+ = 12 ≦ MIC ≦ 32)	+ (+ = 12 ≦ MIC ≦ 32)	+++ (+++ = MIC ≦ 4)	++ (++ = 4 < MIC < 12)			
									Cn1cc(NC(=O)c2cc(NC(=O)c3cc(NC(=O)c4ccc(F)cc4F)c[nH]3)cn2C)cc1C(=O)NCCc1ccncc1 [Compound A-7]	>32 µg/mL	+++ (+++ = MIC ≦ 4)	+++ (+++ = MIC ≦ 4)	+++ (+++ = MIC ≦ 4)	+++ (+++ = MIC ≦ 4)	+++ (+++ = MIC ≦ 4)	+++ (+++ = MIC ≦ 4)	+++ (+++ = MIC ≦ 4)	+++ (+++ = MIC ≦ 4)
									Cn1cc(NC(=O)c2cc(NC(=O)c3cc(NC(=O)c4ccc(F)cc4F)c[nH]3)cn2C)cc1C(=O)NCCN1CCC(F)(F)CC1 [Compound A-12]	>32 µg/mL	+++ (+++ = MIC ≦ 4)	+++ (+++ = MIC ≦ 4)	+ (+ = 12 ≦ MIC ≦ 32)	+++ (+++ = MIC ≦ 4)	+++ (+++ = MIC ≦ 4)	+++ (+++ = MIC ≦ 4)	+++ (+++ = MIC ≦ 4)	+++ (+++ = MIC ≦ 4)
									CN(C)CCCNC(=O)c1cc(NC(=O)c2cc(NC(=O)c3cc(NC(=O)c4ccc(Cl)cc4F)c[nH]3)cn2C)cn1C [Compound A-13]	+++ (+++ = MIC ≦ 4)	+++ (+++ = MIC ≦ 4)	+ (+ = 12 ≦ MIC ≦ 32)	+++ (+++ = MIC ≦ 4)	+++ (+++ = MIC ≦ 4)	++ (++ = 4 < MIC < 12)	+++ (+++ = MIC ≦ 4)	+++ (+++ = MIC ≦ 4)	+++ (+++ = MIC ≦ 4)
									CCN(CC)CCNC(=O)c1cc(NC(=O)c2cc(NC(=O)c3cc(NC(=O)c4ccc(Cl)cc4F)c[nH]3)cn2C)cn1C [Compound A-16]	+++ (+++ = MIC ≦ 4)	+++ (+++ = MIC ≦ 4)	+++ (+++ = MIC ≦ 4)	+++ (+++ = MIC ≦ 4)	+++ (+++ = MIC ≦ 4)	+++ (+++ = MIC ≦ 4)	+++ (+++ = MIC ≦ 4)	+++ (+++ = MIC ≦ 4)	+++ (+++ = MIC ≦ 4)
									Cn1cc(NC(=O)c2cc(NC(=O)c3ccc(Cl)cc3F)c[nH]2)cc1C(=O)NCCN1CCCCC1 [Compound A-18]	>32 µg/mL	+++ (+++ = MIC ≦ 4)	+++ (+++ = MIC ≦ 4)	+++ (+++ = MIC ≦ 4)	+++ (+++ = MIC ≦ 4)	+++ (+++ = MIC ≦ 4)	+++ (+++ = MIC ≦ 4)	+++ (+++ = MIC ≦ 4)	+++ (+++ = MIC ≦ 4)
									Cn1cc(NC(=O)c2cc(NC(=O)c3ccc(Cl)cc3F)c[nH]2)cc1C(=O)NCCN1CCSCC1 [Compound A-21]	>32 µg/mL	+++ (+++ = MIC ≦ 4)	+++ (+++ = MIC ≦ 4)	+++ (+++ = MIC ≦ 4)	+++ (+++ = MIC ≦ 4)	+++ (+++ = MIC ≦ 4)	+++ (+++ = MIC ≦ 4)	+++ (+++ = MIC ≦ 4)	+++ (+++ = MIC ≦ 4)
									Cn1cc(NC(=O)c2cc(NC(=O)c3ccc(Cl)cc3F)c[nH]2)cc1C(=O)NCCN1CCC(F)(F)CC1 [Compound A-22]	>32 µg/mL	+++ (+++ = MIC ≦ 4)	+++ (+++ = MIC ≦ 4)	+++ (+++ = MIC ≦ 4)	+++ (+++ = MIC ≦ 4)	+++ (+++ = MIC ≦ 4)	+++ (+++ = MIC ≦ 4)	+++ (+++ = MIC ≦ 4)	+++ (+++ = MIC ≦ 4)
≤ 4 µg/mL	≤ 4 µg/mL	≤ 4 µg/mL	12 to 32 µg/mL	≤ 4 µg/mL	≤ 4 µg/mL	≤ 4 µg/mL	4 to 12 µg/mL	≤ 4 µg/mL	Cn1cc(NC(=O)c2cc(NC(=O)c3cc(NC(=O)c4ccc(Cl)cc4F)c[nH]3)cn2C)cc1C(=O)NCC[N+]1(C)CCOCC1 [Compound A-28]									
									Cn1cc(NC(=O)c2cc(NC(=O)c3cc(NC(=O)c4ccc(F)cc4F)cn3C)cn2C)cc1C(=O)NCCN1CCOCC1 [Compound B-1]	>32 µg/mL	+++ (+++ = MIC ≦ 4)	+++ (+++ = MIC ≦ 4)	+++ (+++ = MIC ≦ 4)	+++ (+++ = MIC ≦ 4)	+++ (+++ = MIC ≦ 4)	+++ (+++ = MIC ≦ 4)	+++ (+++ = MIC ≦ 4)	+++ (+++ = MIC ≦ 4)
									Cn1cc(NC(=O)c2cc(NC(=O)c3cc(NC(=O)c4ccc(F)cc4F)cn3C)cn2C)cc1C(=O)NCCN1CCSCC1 [Compound B-3]	>32 µg/mL	+++ (+++ = MIC ≦ 4)	+ (+ = 12 ≦ MIC ≦ 32)	+++ (+++ = MIC ≦ 4)	+++ (+++ = MIC ≦ 4)	+++ (+++ = MIC ≦ 4)	+++ (+++ = MIC ≦ 4)	+++ (+++ = MIC ≦ 4)	+++ (+++ = MIC ≦ 4)
									Cn1cc(NC(=O)c2cc(NC(=O)c3ccc(F)cc3F)cn2C)cc1C(=O)NCCN1CCSCC1 [Compound B-11]	>32 µg/mL	+++ (+++ = MIC ≦ 4)	+++ (+++ = MIC ≦ 4)	+++ (+++ = MIC ≦ 4)	+++ (+++ = MIC ≦ 4)	+++ (+++ = MIC ≦ 4)	+++ (+++ = MIC ≦ 4)	+++ (+++ = MIC ≦ 4)	+++ (+++ = MIC ≦ 4)
									Cn1cc(NC(=O)c2cc(NC(=O)c3cc(NC(=O)c4ccc(F)cc4F)cn3C)cn2C)cc1C(=O)NCCc1ccncc1 [Compound B-22]	>32 µg/mL	+++ (+++ = MIC ≦ 4)	+++ (+++ = MIC ≦ 4)	+++ (+++ = MIC ≦ 4)	+++ (+++ = MIC ≦ 4)	+++ (+++ = MIC ≦ 4)	+++ (+++ = MIC ≦ 4)	+++ (+++ = MIC ≦ 4)	+++ (+++ = MIC ≦ 4)
									Cn1cc(NC(=O)c2cc(NC(=O)c3cc(NC(=O)c4ccc(F)cc4F)cn3C)cn2C)cc1C(=O)NCCc1cccnc1 [Compound B-24]	>32 µg/mL	+++ (+++ = MIC ≦ 4)	+++ (+++ = MIC ≦ 4)	+++ (+++ = MIC ≦ 4)	+++ (+++ = MIC ≦ 4)	+++ (+++ = MIC ≦ 4)	+++ (+++ = MIC ≦ 4)	+++ (+++ = MIC ≦ 4)	+++ (+++ = MIC ≦ 4)
